Each structure is given as a SMILES string. Where two headings read alike, the source gives them in different places.

In series [1] the test system is blood circulation of dogs. In words: Effect on blood circulation (arterial blood pressure, heart rate, contractility dp/dt max) in anesthetized dogs. The settings on record: for Decrease of contractility, duration / inhibition in vivo at 1 mg/kg / inhibition in vivo at 0.25 mg/kg: left ventricle; for inhibition in vivo at 1 mg/kg / inhibition in vivo at 0.25 mg/kg: Canis lupus familiaris, iv, read-out: Decrease of contractility dp/dt max. Format: in vivo. How it is done: (1.) Effect on blood circulation: The blood circulation tests were performed on dogs with a body weight of 19-30 kg under chloralose-urethane-nembutalanesthesia (54+270+10 mg/kg i.v.). After opening the thorax in the 4th left intercostal space, artificial respiration was applied to the animals with room air by means of an Harvard-Respirator. The arterial blood-pressure was measured in an arteria carotis with a Statham-transducer; the heart rate was measured electronically from the sequence of R-peaks of the electrocardiogram. The maximum rate of pressure increase (dp/dt max) in the left ventricle was measured by means of a Konigsberg pressure-receiver and a Grass differentiation amplifier. All parameters were recorded by means of a direct-writer. For inhibition of coagulation the animals were given 10 mgm/kg of potassium polyethylenesulfonate i.v. in 20% of polydiol. The test compounds were intravenously administered to 4-6 dogs per compound.

Series [2] concerns isolated guinea pig auricle. Nature of the series: effect on the force of contraction and frequency of the isolated guinea pig auricle. Conditions: Cavia porcellus, 37° C.; for inhibition at 30 µg/mL: 3.10^-5 gm/ml; for inhibition at 10 µg/mL: 10^-5 gm/ml; for inhibition at 3 µg/mL: 3.10^-6 gm/ml; for inhibition at 100 µg/mL: 10^-4 gm/ml. The protocol: (2.) effect on the force of contraction and frequency of the isolated guinea pig auricle
In spontaneously beating isolated auricles of guinea pigs, which were kept in carbogen-aerated ([…] +5% CO2) Krebs-Henseleit-solution at a temperature of 37° C., and at predetermined concentrations of the test compounds, the maximum developed tension (isometric force of contraction) and the frequency were measured: […]

The nature of series [3]: in vivo. Conditions: mouse, mice, observation period 14 days. How it is done:
(3.) determination of acute toxicity
The acute toxicity of the test compounds was determined in mice (observation period: 14 days) after oral or intravenous administration. The LD50 was calculated from the percentage of the animals that dies during the observation period after administration of varying doses: […]

The mark [4] stands for this setting: read-out: Decrease in frequency.
[5] abbreviates: read-out: Decrease in maximum force of contraction.

As for `COc1ccc2cc(-c3ccc(OCC(O)CNC(C)(C)C)cc3)n(C)c(=O)c2c1` (stereo not drawn) [A, 2-methyl-3-[4-(2-hydroxy-3-tert. butylamino-propoxy)-phenyl]-7-methoxy-isoquinolin-1 (2H)-one], in series [1] (1.0 mgm/kg i.v.), the “Decrease in heart rate” value is recorded as 29 ± 15 beats/min; the “Decrease in heart rate, duration” value stood at 36 min; the “Effect on average arterial blood pressure” value was -20 ± 2 mm Hg; the “Effect on average arterial blood pressure, duration” value (shortened to “Effect … duration”) came to 50 min. Besides, in series [1] (1.0 mgm/kg i.v.), the “Decrease of contractility, duration” value was found to be 44 min and the inhibition in vivo at 1 mg/kg came to 50 ± 10%. Moreover, in series [2] (setting [4]), the inhibition at 30 µg/mL is 30% and the inhibition at 10 µg/mL amounted to 23%. Moreover, in series [2] (setting [5]), the inhibition at 30 µg/mL amounted to 82% and the inhibition at 10 µg/mL came to 50%. Moreover, in series [3] (iv), the LD50 (as a rule, the dose at which mortality reaches 50%) at 336 h came to 62 mg/kg. This compound displayed a median lethal dose (LD50) at 336 h in series [3] (po) of 460 mg/kg.
Regarding `COc1ccc2cc(-c3ccccc3OCC(O)CNC(C)C)n(C)c(=O)c2c1.O=C(O)C(=O)O` (stereo not drawn) [B, 2-methyl-3-[2-(2-hydroxy-3-isopropylamino-propoxy)-phenyl]-7-methoxy-isoquinolin-1 (2H)-one-oxalate], in series [1] (1.0 mgm/kg i.v.), the “Decrease in heart rate” value was determined as 19 ± 6 beats/min; the “Decrease in heart rate, duration” value was found to be 50 min; the “Effect on average arterial blood pressure” value is on record as -24 ± 2 mm Hg; the “Effect … duration” value came to 41 min. In series [1] (1.0 mgm/kg i.v.), the “Decrease of contractility, duration” value was found to be 47 min and the inhibition in vivo at 1 mg/kg was found to be 51 ± 7%. The LD50 at 336 h in series [3] (iv) worked out at 47 mg/kg.
`COc1ccc(-c2cc3ccc(OC)cc3c(=O)n2C)c(OCC(O)CNC(C)C)c1.O=C(O)C(=O)O` (stereo not drawn) [C, 2-methyl-3-[2-(2-hydroxy-3-isopropylamino-propoxy)-4-methoxy-phenyl]-7-methoxy-isoquinolin-1 (2H)-one-oxalate]: in series [1] (1.0 mgm/kg i.v.), the “Decrease in heart rate” value worked out at 38 ± 2 beats/min; the “Decrease in heart rate, duration” value stood at 50 min; the “Effect on average arterial blood pressure” value is -17 ± 3 mm Hg; the “Effect … duration” value amounted to 40 min. Further, in series [1] (1.0 mgm/kg i.v.), the “Decrease of contractility, duration” value was 50 min and the inhibition in vivo at 1 mg/kg came to 53 ± 6%. For the same compound, in series [2] (setting [4]), the inhibition at 3 µg/mL worked out at 15% and the inhibition at 10 µg/mL amounted to 29%. In series [2] (setting [5]), the inhibition at 3 µg/mL is 17% and the inhibition at 10 µg/mL was 29%. In series [3] (iv), the 50% lethal dose (LD50) at 336 h is 50 mg/kg. In series [3] (po), this compound showed an LD50 at 336 h of 500 mg/kg.
As for `COc1ccc(-c2cc3ccc(OC)cc3c(=O)n2C)c(OCC(O)CNC(C)(C)C)c1` (stereo not drawn) [D, 2-methyl-3-[2-(2-hydroxy-3-tert. butylamino-propoxy)-4-methoxy-phenyl]-7-methyoxy-isoquinoline-1 (2H)-one-oxalate], in series [1] (0.25 mgm/kg i.v.), the “Decrease in heart rate” value turned out to be 15 ± 5 beats/min; the “Decrease in heart rate, duration” value amounted to 27 min; the “Effect on average arterial blood pressure” value is recorded as -6 ± 3 mm Hg; the “Effect … duration” value is 24 min. Moreover, in series [1] (0.25 mgm/kg i.v.), the “Decrease of contractility, duration” value came out at 28 min and the inhibition in vivo at 0.25 mg/kg turned out to be 36 ± 13%. Further, the inhibition at 30 µg/mL in series [2] (setting [4]) turned out to be 40%. Besides, the inhibition at 30 µg/mL in series [2] (setting [5]) worked out at 64%.
Turning to `COc1cc2cc(-c3ccc(OCC(O)CNC(C)(C)C)cc3)n(C)c(=O)c2cc1OC` (stereo not drawn) [E, 2-methyl-3-[4-(2-hydroxy-3-tert. butylamino-propoxy)-phenyl]-6,7-dimethoxy-isoquinolin-1 (2H)-one], in series [1] (1.0 mgm/kg i.v.), the “Decrease in heart rate” value is listed as 25 ± 6 beats/min; the “Decrease in heart rate, duration” value amounted to 51 min; the “Effect on average arterial blood pressure” value is on record as -18 ± 11 mm Hg; the “Effect … duration” value came to 11 min. Further, in series [1] (1.0 mgm/kg i.v.), the “Decrease of contractility, duration” value came out at 51 min and the inhibition in vivo at 1 mg/kg stood at 52 ± 8%. In addition, in series [2] (setting [4]), the inhibition at 30 µg/mL was 31% and the inhibition at 100 µg/mL is 46%. For the same compound, in series [2] (setting [5]), the inhibition at 30 µg/mL is 54% and the inhibition at 100 µg/mL is 72%.
Take `COc1cc2cc(-c3ccc(OCC(O)CNC(C)C)cc3)n(C)c(=O)c2cc1OC` (stereo not drawn) [F, 2-methyl-3-[4-(2-hydroxy-3-isopropylamino-propoxy)-phenyl]-6,7-dimethoxy-isoquinolin-1 (2H)-one]: in series [1] (1.0 mgm/kg i.v.), the “Decrease in heart rate” value came to 12 ± 6 beats/min; the “Decrease in heart rate, duration” value came out at 31 min; the “Effect on average arterial blood pressure” value was -7 ± 3 mm Hg; the “Effect … duration” value was determined as 17 min. Moreover, in series [1] (1.0 mgm/kg i.v.), the “Decrease of contractility, duration” value was found to be 43 min and the inhibition in vivo at 1 mg/kg was determined as 33 ± 6%. For the same compound, in series [2] (setting [4]), the inhibition at 30 µg/mL came out at 29% and the inhibition at 10 µg/mL is 22%. In series [2] (setting [5]), the inhibition at 30 µg/mL worked out at 43% and the inhibition at 10 µg/mL stood at 30%.
For the compound `COc1ccc2cc(-c3ccc(OCC(O)CNC(C)C)c(OC)c3)n(C)c(=O)c2c1` (stereo not drawn) [G, 2-methyl-3-[3-methoxy-4-(2-hydroxy-3-isopropylamino-propoxy)-phenyl]-7-methoxy-isoquinolin-1 (2H)-one], in series [1] (0.25 mgm/kg i.v.), the “Decrease in heart rate” value was found to be 37 ± 5 beats/min; the “Decrease in heart rate, duration” value turned out to be 54 min; the “Effect on average arterial blood pressure” value was -3 ± 2 mm Hg; the “Effect … duration” value was 20 min. Further, in series [1] (0.25 mgm/kg i.v.), the “Decrease of contractility, duration” value was determined as 48 min and the inhibition in vivo at 0.25 mg/kg was determined as 48 ± 6%. In series [2] (setting [4]), the inhibition at 30 µg/mL was determined as 37% and the inhibition at 10 µg/mL is 22%. In series [2] (setting [5]), the inhibition at 30 µg/mL is 48% and the inhibition at 10 µg/mL is 35%.
On to `COc1ccc2cc(CCc3ccc(OCC(O)CNC(C)C)cc3)n(C)c(=O)c2c1` (stereo not drawn) [H, 2-methyl-3-[4-(2-hydroxy-3-isopropylamino-propoxy)-phenethyl]-7-methoxy-isoquinolin-1 (2H)-one], for which, in series [1] (1.0 mgm/kg i.v.), the “Decrease in heart rate” value worked out at 34 ± 10 beats/min; the “Decrease in heart rate, duration” value came to 47 min; the “Effect on average arterial blood pressure” value is -25 ± 15 mm Hg; the “Effect … duration” value is 20 min. Besides, in series [1] (1.0 mgm/kg i.v.), the “Decrease of contractility, duration” value was 47 min and the inhibition in vivo at 1 mg/kg stood at 53 ± 13%.

(Values after US4154837A, “(Aminoalkoxy-aryl)-substituted isoquinolinones and naphthydrinones and salts thereof, and hypotensive compositions and methods employing them” (Boehringer Ingelheim GmbH, priority 1977, dated 1979).)
